# In PubChem BioAssay (NCI):
# Values joined by “and” are separate entries in the source; they are usually repeats but may differ in a detail not shown here. Equal entries are not always repeated.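 Values below derive from 48-hour exposures of cells grown in 96-well plates, with endpoints linearly interpolated between the two concentrations bracketing the appropriate inhibition level. GI50 = concentration required for 50% inhibition of growth. TGI denotes the concentration required for complete inhibition of growth.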
# Tests used:
# Experiment in all cases: inhibition of tumour cell growth, NCI panel, 48 h
# SK-OV-3 ovarian = system: SK-OV-3 ovarian
# HL-60(TB) leukemia = system: HL-60(TB) leukemia
# HCC-2998 colon = system: HCC-2998 colon
# EKVX NSCLC = system: EKVX NSCLC
# UO-31 renal = system: UO-31 renal
# HOP-92 NSCLC = system: HOP-92 NSCLC
# SK-MEL-5 melanoma = system: SK-MEL-5 melanoma
# K-562 leukemia = system: K-562 leukemia
# KM12 colon = system: KM12 colon
# SK-MEL-2 melanoma = system: SK-MEL-2 melanoma
Compound,TGI (SK-OV-3 ovarian) [µM],TGI (HL-60(TB) leukemia) [µM],TGI (HCC-2998 colon),TGI (EKVX NSCLC),TGI (UO-31 renal),TGI (HOP-92 NSCLC) [µM],TGI (SK-MEL-5 melanoma),TGI (K-562 leukemia) [µM],TGI (KM12 colon) [µM],TGI (SK-MEL-2 melanoma),GI50 (SK-MEL-5 melanoma),GI50 (K-562 leukemia) [µM],GI50 (KM12 colon),GI50 (HL-60(TB) leukemia) [µM],GI50 (EKVX NSCLC) [µM],GI50 (UO-31 renal) [µM],GI50 (SK-MEL-2 melanoma) [µM],GI50 (SK-OV-3 ovarian) [µM],GI50 (HCC-2998 colon) [µM],GI50 (HOP-92 NSCLC) [µM]
CC(C)C[S+]1C2=C([O-])CC(C)(C)CC2=Nc2ccccc21 (stereo not given),> 100,> 100,> 100 µM,> 100 µM,> 100 µM,> 100,> 100 µM,> 100,> 100,> 100 µM,,,,,,,,,,
CN(C)c1ccc(/C=C/C(=O)c2cc(C(C)(C)C)c(O)c(C(C)(C)C)c2)cc1,> 100,> 24.4,3.67 µM,> 100 µM,> 100 µM,> 100,16.5 µM,> 100,> 25.7,> 100 µM,,,,,,,,,,
COC1(OC)CC2C(=O)N(Cc3ccccc3)C1C(S(=O)(=O)c1ccccc1)C2C(C)S(=O)(=O)c1ccccc1 (stereo not given),> 100,> 100,> 100 µM,> 100 µM,,> 100,> 100 µM,> 100,> 100,> 100 µM,,,,,,,,,,
Cc1ccc(S(=O)(=O)NC(=O)Nc2c(S(N)(=O)=O)cc(S(N)(=O)=O)c(Cl)c2Cl)cc1,> 100,> 100,> 100 µM,> 100 µM,> 100 µM,> 100,> 100 µM,> 100,> 100,> 100 µM,,,,,,,,,,
c1ccc(CN2CCC(=NN3CCCCC3)CC2)cc1,> 100,43.9,> 100 µM,> 100 µM,> 100 µM,> 100,> 100 µM,> 100,> 100,> 100 µM,,,,,,,,,,
CC1(CO)C(O)CCC2(C)C1CCC1CC3CC12CCC3(O)CO (stereo not given),> 100,> 100,> 100 µM,> 100 µM,98.8 µM,> 100,> 100 µM,> 100,> 100,> 100 µM,,,,,,,,,,
CCCNC1=C2C[C@@H](C)C[C@@H](OC)[C@@H](OC(=O)CCCN)[C@H](C)/C=C(\C)[C@@H](OC(N)=O)[C@H](OC)/C=C\C=C(/C)C(=O)NC(=CC1=O)C2=O,32.4,8.01,38.1 µM,37.5 µM,36.1 µM,25.8,24.5 µM,> 20.9,26.1,30.9 µM,,,,,,,,,,
COc1ccccc1N1CCN(CCCCNC(=O)c2ccc([N+](=O)[O-])o2)CC1,56.7,26.1,5.71 µM,34.2 µM,23.2 µM,40.4,18.7 µM,> 60.5,20.3,19.4 µM,,,,,,,,,,
CCC(=O)OC1CCn2c1nc1c2C(=O)C(C)=C(NC(C)=O)C1=O (stereo not given),11.4,3.89,5.13 µM,3.53 µM,4.73 µM,3.5,3.27 µM,4.43,4.03,3.41 µM,,,,,,,,,,
O=C1CC(c2ccc(Cl)cc2)C2(C(=O)NC(=S)NC2=O)C(c2ccc(Cl)cc2)C1 (stereo not given),29,57.2,43.3 µM,91.7 µM,48.9 µM,40.3,33.1 µM,74.1,40.1,36.1 µM,,,,,,,,,,
C[N+]1=C(c2cccnc2/C=N/O)OCC1(C)C,> 100,> 100,> 100 µM,> 100 µM,> 100 µM,> 100,> 100 µM,> 100,> 100,> 100 µM,,,,,,,,,,
C[C@@H]1C[C@H]2OC(=O)[C@@]3(C)CCC[C@@](C)([C@@H]23)[C@@]1(O)CCc1ccoc1,> 100,> 88.6,> 100 µM,> 100 µM,> 100 µM,> 100,> 100 µM,> 100,> 100,> 100 µM,,,,,,,,,,
COC(=O)[C@H](CNC(=O)/C=C/c1ccc(OC(C)=O)c(OC(C)=O)c1)NC(=O)/C=C/c1ccc(OC(C)=O)c(OC(C)=O)c1,> 100,> 100,> 100 µM,> 100 µM,,> 100,> 100 µM,> 100,> 100,> 100 µM,,,,,,,,,,
O=C(N/N=C(/COc1ccccc1)N=Cc1ccncc1)c1ccncc1,> 100,> 100,> 100 µM,> 100 µM,,> 100,,> 100,> 100,> 100 µM,,,,,,,,,,
Cc1ccc2nc(N)[nH]c(=O)c2c1Sc1ccncc1,> 100,> 100,> 100 µM,> 100 µM,> 100 µM,> 100,> 100 µM,> 31.6,> 100,> 100 µM,,,,,,,,,,
O=c1oc2ccc([N+](=O)[O-])cc2nc1/C=C(\O)c1ccccc1,> 100,> 100,> 100 µM,> 100 µM,> 100 µM,> 100,> 100 µM,> 100,> 100,98.2 µM,,,,,,,,,,
CCOC(=O)/C=C/n1c2ccccc2c(=O)c2cc(OC)ccc21,> 100,> 100,> 100 µM,> 100 µM,> 100 µM,> 100,> 100 µM,> 100,> 100,> 100 µM,,,,,,,,,,

Compound,TGI (SK-OV-3 ovarian) [µM],TGI (HL-60(TB) leukemia) [µM],TGI (HCC-2998 colon),TGI (EKVX NSCLC),TGI (UO-31 renal),TGI (HOP-92 NSCLC) [µM],TGI (SK-MEL-5 melanoma),TGI (K-562 leukemia) [µM],TGI (KM12 colon) [µM],TGI (SK-MEL-2 melanoma),GI50 (SK-MEL-5 melanoma),GI50 (K-562 leukemia) [µM],GI50 (KM12 colon),GI50 (HL-60(TB) leukemia) [µM],GI50 (EKVX NSCLC) [µM],GI50 (UO-31 renal) [µM],GI50 (SK-MEL-2 melanoma) [µM],GI50 (SK-OV-3 ovarian) [µM],GI50 (HCC-2998 colon) [µM],GI50 (HOP-92 NSCLC) [µM]
Cc1ccc(S(=O)(=O)NC(=O)C2S(=O)(=O)OCCOS2(=O)=O)cc1,> 100,> 100,> 100 µM,> 100 µM,> 100 µM,> 100,> 100 µM,> 100,> 100,> 100 µM,,,,,,,,,,
O=C1NC(=O)C(C(=O)C(=O)Nc2cc(Cl)ccc2Cl)C(=O)N1,> 100,> 100,> 100 µM,> 100 µM,> 100 µM,> 100,> 100 µM,> 100,> 100,> 100 µM,,,,,,,,,,
CCO/C(O)=C(/C(=N)N1CCOCC1)C(=O)Nc1cccc(C(F)(F)F)c1,> 100,> 100,> 100 µM,> 100 µM,,> 100,,> 100,> 100,> 100 µM,,,,,,,,,,
O=[N+]([O-])c1ccc(CSc2nn(Cc3ccc([N+](=O)[O-])cc3)cc3ncnc2-3)cc1,> 100,46.4,> 100 µM,> 100 µM,61.2 µM,30.4,> 100 µM,> 100,> 100,49.1 µM,,,,,,,,,,
COc1ccc2[nH]c3cc4c(=O)c5cc(OC)ccc5[nH]c4cc3c(=O)c2c1,> 100,36.2,> 100 µM,> 100 µM,> 100 µM,> 100,> 100 µM,> 100,> 100,> 100 µM,,,,,,,,,,
Cc1nc2cn3c(c2c(=O)[nH]1)CCCCC3,> 100,> 100,> 100 µM,> 100 µM,> 100 µM,> 100,> 100 µM,> 100,> 100,> 100 µM,,,,,,,,,,
OC1(c2ccccc2)CC2CCC(C1)N2CCCC(O)(c1ccccc1)c1ccccc1 (stereo not given),28.1,> 100,6.25 µM,38.3 µM,20.2 µM,18.9,10.2 µM,37.8,30.3,37.6 µM,,,,,,,,,,
N#C/C(=C\c1ccc(O)c(O)c1)c1c(C#N)c(N)nn1-c1ccccc1,36.5,32.7,26.4 µM,69.7 µM,62 µM,> 100,34.4 µM,55.9,> 100,49.8 µM,,,,,,,,,,
COc1ccc(/C=C2/N=C(N/N=C\C(O)C(O)C(O)CO)NC2=O)cc1 (stereo not given),> 100,> 100,> 100 µM,> 100 µM,> 100 µM,> 100,> 100 µM,> 100,> 100,> 100 µM,> 100 µM and 41.6 µM,33,> 100 µM and 26.9 µM,,,,,,,
CCN(CC)CCNc1c2ccccc2nc2cccc([N+](=O)[O-])c12,0.0637,0.175,0.0315 µM and 0.0156 µM,0.0298 µM and 0.08 µM,0.0412 µM and 0.252 µM,0.0261,0.0173 µM and 0.0258 µM,0.121,,0.0185 µM and 0.023 µM,0.0112 µM,,,0.0104,0.029,0.0712,0.0102,,,
C1=N[C@]23C(=N[C@H](N=C2NCc2ccco2)[C@]24N=CNC2=N[C@H]3N=C4NCc2ccco2)N1,> 100,> 100,> 100 µM,> 100 µM,> 100 µM,> 100,> 100 µM,> 100,> 100,> 100 µM,> 100 µM,> 100,> 100 µM,> 100,89.5,> 100,> 100,> 100,> 100,5.34
COc1ccccc1C1C2=C(COC2=O)Oc2cc3c(cc21)OCO3 (stereo not given),45.9,11.6,> 37.6 µM,> 42.8 µM,> 33.5 µM,97.7,> 100 µM,> 100,> 100,99.7 µM,,,,,,,,,,
C=CCn1c(-c2cc(C(C)(C)C)c(O)c(C(C)(C)C)c2)cs/c1=N\C(P(=O)(O)O)P(=O)(O)O,> 100,> 100,> 100 µM,> 100 µM,> 100 µM,> 100,,> 100,> 100,> 100 µM,,,,,,,,,,
c1ccc(-c2cnc(SC(c3ccccc3)c3ccccc3)[nH]2)cc1,> 100,40.7,35.8 µM,60 µM,> 100 µM,54,27 µM,> 100,> 100,53.2 µM,,,,,,,,,,
COC(=O)C1OC(O[C@H]2CC[C@]3(C)[C@H]4CC=C5[C@@H]6CC(C)(C)CC[C@]6(C(=O)OC)CC[C@@]5(C)[C@]4(C)CC[C@H]3C2(C)C)C(O)C(O)C1O (stereo not given in full),34.8,36.7,20.3 µM,29 µM,33.4 µM,34.7,32.2 µM,46.3,20.7,31.9 µM,,,,,,,,,,
Cc1ccc(C2(O)c3ccccc3C(=O)N(C)C2(O)c2ccc(C)cc2)cc1 (stereo not given),> 100,40.3,> 100 µM,> 100 µM,> 100 µM,91.1,> 100 µM,> 100,> 100,> 100 µM,,,,,,,,,,
CCOC(=O)NN(C(=O)OCC)c1ccc(N=Nc2ccc(OC)cc2)n1C,> 100,50.5,83.6 µM,> 100 µM,71 µM,78.5,32.6 µM,71.4,76.9,29.4 µM,,,,,,,,,,
